The values below come from ChEMBL document CHEMBL4828703, “Structure-activity relationship study of THZ531 derivatives enables the discovery of BSJ-01-175 as a dual CDK12/13 covalent inhibitor with efficacy in Ewing sarcoma” (Eur J Med Chem, 2021).

Each structure is given as a SMILES string. Calls of active or inactive are those of the source. The rule behind the calls is not given here.

In data set [1] the target is Mitogen-activated protein kinase 9 (Homo sapiens) (UniProt P45984). Description: Inhibition of ADP(ATP)-biotin probe binding to JNK2 in human Kelly cells at 1 uM incubated for 6 hrs by KiNativ profiling analysis. It is filed as cell-based.
Chain of Mitogen-activated protein kinase 9 (Homo sapiens) (P45984 whole entry, looked up): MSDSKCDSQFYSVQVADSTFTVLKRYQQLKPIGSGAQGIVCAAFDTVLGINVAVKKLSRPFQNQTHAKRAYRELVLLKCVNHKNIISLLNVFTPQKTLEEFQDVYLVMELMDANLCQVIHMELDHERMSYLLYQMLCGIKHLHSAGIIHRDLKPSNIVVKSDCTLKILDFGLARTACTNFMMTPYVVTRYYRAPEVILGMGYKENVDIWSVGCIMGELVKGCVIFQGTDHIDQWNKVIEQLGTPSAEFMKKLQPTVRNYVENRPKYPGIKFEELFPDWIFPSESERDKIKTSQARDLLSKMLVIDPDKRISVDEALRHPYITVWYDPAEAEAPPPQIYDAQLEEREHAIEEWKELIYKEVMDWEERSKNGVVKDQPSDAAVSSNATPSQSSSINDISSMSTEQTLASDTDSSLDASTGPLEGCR
Another data set addresses CDK12/Cyclin K (Homo sapiens, UniProt Q9NYV4). The data set can be described thus: Inhibition of human recombinant CDK12/CyclinK assessed as reduction in substrate phosphorylation using His-c-Myc as substrate preincubated with enzyme for 5 mins followed by substrate addition for 15 mins in presence of [gamma 32P-ATP] by radioactive kinase assay. It is filed as protein-complex assay.

Data set [2] is described as follows: Toxicity in nude mouse xenografted with human TC71 cells assessed as body weight loss at 10 mg/kg, ip for 21 days. It is filed as organism-based. The following applies: in vivo, 504 h, time 21 day.
Data set [3] can be described thus: Downregulation of RNA polymerase 2 in human Jurkat cells at 1 uM measured after 6 hrs by immunoblotting analysis. It is filed as functional. On the technique in general: Immunoblotting shows a protein as a band on a membrane.
A short description of data set [4]: Oral bioavailability in Swiss albino mouse at 10 mg/kg measured upto 24 hrs by LC-MS/MS analysis. It is filed as ADME, organism-based. The note with it: in vivo.
Data set [5] can be described thus: Downregulation of RNA polymerase 2 CTD phosphorylation at Ser5 residue in human Jurkat cells at 5 uM incubated for 6 hrs by immunoblotting analysis. It is filed as functional.
Data set [6] in a line: Antiproliferative activity against human Kelly cells harboring CDK12 C1039F mutant assessed as reduction in cell viability incubated for 72 hrs by CellTiter-Glo assay. It is filed as functional, cell-based.
For data set [7], the target named is T1, Cyclin-dependent kinase 12/13 (Homo sapiens) (UniProt Q14004+Q9NYV4). The data set can be described thus: Inhibition of CDK12/13 in human Jurkat cells assessed as BRCA2 gene expression at 0.5 to 1 uM incubated for 4 hrs by RT-qPCR analysis. It is filed as cell-based. Also on record: scale not given: the % may be the effect or the level left. The note with it: dose 0.5-1 µM. (Quantitative PCR measures a nucleic acid by following its amplification.)

Data set [8] concerns the target Ribosomal protein S6 kinase alpha-1 (Homo sapiens) (UniProt Q15418). The data set can be described thus: Inhibition of ADP(ATP)-biotin probe binding to RSK1 domain 1 in human Kelly cells at 1 uM incubated for 6 hrs by KiNativ profiling analysis. It is filed as cell-based.
Data set [9] has as its target Serine/threonine-protein kinase 16 (Homo sapiens) (UniProt O75716). The data set can be described thus: Inhibition of ADP(ATP)-biotin probe binding to MPSK1 in human Kelly cells at 1 uM incubated for 6 hrs by KiNativ profiling analysis. It is filed as cell-based.
Data set [10] addresses STE20-related kinase adapter protein beta (Homo sapiens) (UniProt Q9C0K7). The data set can be described thus: Inhibition of ADP(ATP)-biotin probe binding to STLK6 in human Kelly cells at 1 uM incubated for 6 hrs by KiNativ profiling analysis. It is filed as cell-based.
The target in data set [11] is Calcium/calmodulin-dependent protein kinase type IV (Homo sapiens) (UniProt Q16566). Description: Inhibition of ADP(ATP)-biotin probe binding to CaMK4 in human Kelly cells at 1 uM incubated for 6 hrs by KiNativ profiling analysis. It is filed as cell-based.
Chain of Calcium/calmodulin-dependent protein kinase type IV (Homo sapiens) (Q16566 whole entry): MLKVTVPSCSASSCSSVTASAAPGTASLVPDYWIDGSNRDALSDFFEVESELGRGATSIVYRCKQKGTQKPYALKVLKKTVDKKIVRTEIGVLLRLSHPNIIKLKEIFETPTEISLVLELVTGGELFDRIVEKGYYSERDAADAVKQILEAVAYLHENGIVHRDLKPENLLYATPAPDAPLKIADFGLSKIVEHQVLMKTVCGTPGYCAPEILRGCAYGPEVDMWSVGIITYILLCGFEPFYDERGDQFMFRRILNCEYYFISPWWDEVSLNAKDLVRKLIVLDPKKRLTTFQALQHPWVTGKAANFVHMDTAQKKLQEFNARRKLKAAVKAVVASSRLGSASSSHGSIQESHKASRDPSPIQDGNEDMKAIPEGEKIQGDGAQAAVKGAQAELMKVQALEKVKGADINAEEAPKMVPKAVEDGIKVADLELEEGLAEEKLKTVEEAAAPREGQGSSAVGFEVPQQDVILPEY
The target in data set [12] is T1, Cyclin-dependent kinase 12/13 (Homo sapiens). The data set can be described thus: Inhibition of CDK12/13 in human jurkat cells assessed as reduction in RNA polymerase 2 CTD phosphorylation at Ser2 residue at 0.5 uM measured after 6 hrs by immunoblotting analysis. It is filed as cell-based.
Data set [13] in a line: Cmax in Swiss albino mouse at 3 mg/kg, iv measured upto 24 hrs by LC-MS/MS analysis. More on the design: route intravenous, dose 3 mg/kg, time <=24. The note with it: in vivo. It is filed as ADME, organism-based.
The nature of data set [14]: Downregulation of RNA polymerase 2 CTD phosphorylation at Ser7 residue in human Jurkat cells at 0.5 uM incubated for 6 hrs by immunoblotting analysis. It is filed as functional.
The target of data set [15] is Mitogen-activated protein kinase 10 (Homo sapiens) (UniProt P53779). Description: Inhibition of ADP(ATP)-biotin probe binding to JNK3 in human Kelly cells at 1 uM incubated for 6 hrs by KiNativ profiling analysis. It is filed as cell-based.
Data set [16] can be described thus: AUClast in Swiss albino mouse at 3 mg/kg, iv measured upto 24 hrs by LC-MS/MS analysis. It is filed as ADME, organism-based. Also on record: route intravenous, dose 3 mg/kg, time <=24. The note with it: in vivo.
Data set [17] deals with Mitogen-activated protein kinase 8 (Homo sapiens) (UniProt P45983). Description: Inhibition of ADP(ATP)-biotin probe binding to JNK1 in human Kelly cells at 1 uM incubated for 6 hrs by KiNativ profiling analysis. It is filed as cell-based.
Chain of Mitogen-activated protein kinase 8 (Homo sapiens) (P45983 whole entry): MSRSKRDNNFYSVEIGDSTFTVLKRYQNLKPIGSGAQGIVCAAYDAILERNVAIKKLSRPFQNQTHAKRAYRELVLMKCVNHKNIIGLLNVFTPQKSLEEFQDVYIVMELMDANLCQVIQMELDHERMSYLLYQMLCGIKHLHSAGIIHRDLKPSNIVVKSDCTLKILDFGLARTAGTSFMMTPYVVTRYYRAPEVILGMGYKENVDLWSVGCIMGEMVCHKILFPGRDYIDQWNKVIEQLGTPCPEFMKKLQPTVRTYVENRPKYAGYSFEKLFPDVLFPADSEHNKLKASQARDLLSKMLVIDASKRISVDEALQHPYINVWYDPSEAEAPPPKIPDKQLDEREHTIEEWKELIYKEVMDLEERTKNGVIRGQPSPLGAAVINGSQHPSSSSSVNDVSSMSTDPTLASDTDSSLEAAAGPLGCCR
Another data set addresses Cyclin-K (Homo sapiens) (UniProt O75909). The data set can be described thus: Binding affinity to CyclinK in CDK12/CyclinK complex (unknown origin) at 10-fold excess concentration incubated for 1 hr by LC-MS analysis.
Data set [18] is described as follows: Downregulation of RNA polymerase 2 in human Jurkat cells at 2.5 uM measured after 6 hrs by immunoblotting analysis. It is filed as functional.
Data set [19] can be described thus: Downregulation of RNA polymerase 2 CTD phosphorylation at Ser7 residue in human Jurkat cells at 5 uM incubated for 6 hrs by immunoblotting analysis. It is filed as functional.
Data set [20] has as its target Ribosomal protein S6 kinase alpha-3 (Homo sapiens, UniProt P51812). The data set can be described thus: Inhibition of human RSK2 by Invitrogen ADAPTA or Z'LYTE biochemical kinase assay.
In data set [21] the target is Cyclin-dependent kinase 7 (Homo sapiens) (UniProt P50613). Description: Inhibition of ADP(ATP)-biotin probe binding to CDK7 in human Kelly cells at 1 uM incubated for 6 hrs by KiNativ profiling analysis. It is filed as cell-based.
Chain of Cyclin-dependent kinase 7 (Homo sapiens) (P50613 whole entry): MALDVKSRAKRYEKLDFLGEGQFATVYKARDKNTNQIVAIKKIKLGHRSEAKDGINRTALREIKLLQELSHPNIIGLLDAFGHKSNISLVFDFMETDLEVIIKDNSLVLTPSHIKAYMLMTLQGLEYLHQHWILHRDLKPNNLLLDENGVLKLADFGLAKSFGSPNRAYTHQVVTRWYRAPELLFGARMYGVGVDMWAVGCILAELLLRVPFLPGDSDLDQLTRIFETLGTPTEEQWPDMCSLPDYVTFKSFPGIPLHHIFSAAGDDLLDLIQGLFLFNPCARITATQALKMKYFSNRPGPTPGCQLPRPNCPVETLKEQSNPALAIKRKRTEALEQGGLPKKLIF
Data set [22] can be described thus: Downregulation of RNA polymerase 2 CTD phosphorylation at Ser5 residue in human Jurkat cells at 1 uM incubated for 6 hrs by immunoblotting analysis. It is filed as functional.

Chain of Serine/threonine-protein kinase 16 (Homo sapiens) (O75716 whole entry): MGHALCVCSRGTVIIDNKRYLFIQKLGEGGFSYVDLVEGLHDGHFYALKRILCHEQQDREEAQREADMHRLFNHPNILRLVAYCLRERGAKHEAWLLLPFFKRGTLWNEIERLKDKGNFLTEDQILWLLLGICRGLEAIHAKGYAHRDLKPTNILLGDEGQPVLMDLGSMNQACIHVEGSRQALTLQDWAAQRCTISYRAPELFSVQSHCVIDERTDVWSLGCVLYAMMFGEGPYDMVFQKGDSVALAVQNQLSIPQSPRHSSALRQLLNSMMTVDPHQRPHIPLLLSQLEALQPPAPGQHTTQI
Chain of CDK12/Cyclin K (O75909 whole entry): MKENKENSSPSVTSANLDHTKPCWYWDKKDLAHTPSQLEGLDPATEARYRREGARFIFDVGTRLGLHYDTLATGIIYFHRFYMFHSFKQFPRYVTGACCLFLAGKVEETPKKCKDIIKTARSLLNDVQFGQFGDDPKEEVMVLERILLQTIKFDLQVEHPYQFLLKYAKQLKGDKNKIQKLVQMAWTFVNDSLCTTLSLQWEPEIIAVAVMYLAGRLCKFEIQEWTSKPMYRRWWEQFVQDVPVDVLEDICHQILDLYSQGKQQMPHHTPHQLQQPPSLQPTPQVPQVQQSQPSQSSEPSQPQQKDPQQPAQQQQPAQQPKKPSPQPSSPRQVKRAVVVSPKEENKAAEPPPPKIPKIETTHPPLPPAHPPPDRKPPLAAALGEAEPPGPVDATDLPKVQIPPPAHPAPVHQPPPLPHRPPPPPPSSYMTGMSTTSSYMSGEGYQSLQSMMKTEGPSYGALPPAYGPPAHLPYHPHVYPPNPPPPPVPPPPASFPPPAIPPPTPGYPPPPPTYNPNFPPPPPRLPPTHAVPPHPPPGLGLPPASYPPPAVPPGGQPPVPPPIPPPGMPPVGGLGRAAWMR
Chain of CDK12/Cyclin K (Q9NYV4 whole entry): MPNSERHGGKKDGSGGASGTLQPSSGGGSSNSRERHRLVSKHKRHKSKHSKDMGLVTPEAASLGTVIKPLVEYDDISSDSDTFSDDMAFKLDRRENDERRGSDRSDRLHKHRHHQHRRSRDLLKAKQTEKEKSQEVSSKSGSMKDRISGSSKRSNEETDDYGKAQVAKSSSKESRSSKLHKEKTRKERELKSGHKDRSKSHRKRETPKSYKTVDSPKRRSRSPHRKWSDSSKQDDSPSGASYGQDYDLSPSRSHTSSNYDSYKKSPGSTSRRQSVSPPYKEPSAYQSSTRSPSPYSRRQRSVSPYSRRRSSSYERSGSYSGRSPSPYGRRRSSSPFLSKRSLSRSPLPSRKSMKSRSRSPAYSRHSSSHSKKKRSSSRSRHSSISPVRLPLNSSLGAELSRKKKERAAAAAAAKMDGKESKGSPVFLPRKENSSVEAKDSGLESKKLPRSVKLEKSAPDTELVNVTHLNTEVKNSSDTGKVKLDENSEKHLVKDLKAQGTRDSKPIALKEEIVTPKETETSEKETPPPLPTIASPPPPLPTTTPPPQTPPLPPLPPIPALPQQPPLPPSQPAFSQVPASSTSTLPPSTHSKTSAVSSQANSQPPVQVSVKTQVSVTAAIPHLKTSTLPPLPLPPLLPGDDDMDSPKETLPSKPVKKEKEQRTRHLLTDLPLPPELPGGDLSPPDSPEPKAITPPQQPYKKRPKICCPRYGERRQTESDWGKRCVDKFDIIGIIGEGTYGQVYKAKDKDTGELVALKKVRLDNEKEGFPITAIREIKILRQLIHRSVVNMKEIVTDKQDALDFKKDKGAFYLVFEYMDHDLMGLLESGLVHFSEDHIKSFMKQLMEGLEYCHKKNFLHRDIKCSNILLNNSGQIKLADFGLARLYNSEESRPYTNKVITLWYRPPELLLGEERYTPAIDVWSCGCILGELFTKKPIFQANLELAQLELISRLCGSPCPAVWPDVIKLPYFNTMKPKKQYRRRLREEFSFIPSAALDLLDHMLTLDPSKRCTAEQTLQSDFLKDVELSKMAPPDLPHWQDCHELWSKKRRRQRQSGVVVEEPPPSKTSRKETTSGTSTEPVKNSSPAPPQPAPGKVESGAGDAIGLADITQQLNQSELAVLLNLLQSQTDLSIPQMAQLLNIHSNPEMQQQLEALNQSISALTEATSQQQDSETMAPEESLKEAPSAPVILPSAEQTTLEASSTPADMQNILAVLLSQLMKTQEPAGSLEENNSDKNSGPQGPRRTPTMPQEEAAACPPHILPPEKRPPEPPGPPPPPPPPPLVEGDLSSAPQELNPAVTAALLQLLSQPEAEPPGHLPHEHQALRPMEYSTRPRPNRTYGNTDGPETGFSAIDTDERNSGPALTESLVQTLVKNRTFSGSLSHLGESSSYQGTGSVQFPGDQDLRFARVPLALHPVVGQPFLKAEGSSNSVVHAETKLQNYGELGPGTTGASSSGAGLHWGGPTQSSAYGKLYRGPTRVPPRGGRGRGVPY
Chain of Cyclin-K (Homo sapiens) (O75909 whole entry): as the sequence (O75909 whole entry) above
Chain of Ribosomal protein S6 kinase alpha-1 (Homo sapiens) (Q15418 whole entry, the tested form may be a part): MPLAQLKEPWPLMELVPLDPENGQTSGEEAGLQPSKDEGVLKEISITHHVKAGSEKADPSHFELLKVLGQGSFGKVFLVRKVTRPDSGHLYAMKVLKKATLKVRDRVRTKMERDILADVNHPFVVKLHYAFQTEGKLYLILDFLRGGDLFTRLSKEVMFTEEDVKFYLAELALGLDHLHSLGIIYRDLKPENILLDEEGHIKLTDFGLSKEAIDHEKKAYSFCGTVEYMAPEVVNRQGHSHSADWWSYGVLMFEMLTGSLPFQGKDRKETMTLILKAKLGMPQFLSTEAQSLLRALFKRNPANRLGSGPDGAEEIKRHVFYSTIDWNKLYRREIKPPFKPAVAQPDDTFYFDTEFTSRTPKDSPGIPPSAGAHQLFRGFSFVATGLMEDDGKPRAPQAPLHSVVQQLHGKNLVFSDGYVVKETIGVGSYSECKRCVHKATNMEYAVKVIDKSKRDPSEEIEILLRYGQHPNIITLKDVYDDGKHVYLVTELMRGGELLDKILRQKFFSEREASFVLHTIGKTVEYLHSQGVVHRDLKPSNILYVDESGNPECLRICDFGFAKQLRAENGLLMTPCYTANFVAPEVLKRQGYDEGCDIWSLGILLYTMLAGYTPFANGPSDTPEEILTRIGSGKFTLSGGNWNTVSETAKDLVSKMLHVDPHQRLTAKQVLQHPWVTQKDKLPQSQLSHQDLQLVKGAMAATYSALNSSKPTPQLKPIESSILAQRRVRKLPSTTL

Turning to `CN(C)C/C=C/C(=O)Nc1ccc(O[C@@H]2CCC[C@@H](Nc3ncc(Cl)c(-c4c[nH]c5ccccc45)n3)C2)cc1`, the inhibition in data set [1] amounted to 45.9%; in [8] it was 35.4%; in data set [9], 42.4%; in [10], 44.5%; in data set [11], 38.2%; in data set [12], 45%. Further, the figures for the inhibition in [15], in data set [17] and in data set [21] were 45.9%, 45.9% and 39.2%, respectively. Besides, the IC50 came to 156 nM at CDK12/Cyclin K, 225 nM in data set [6] and 4500 nM in [20]. In addition, the Activity result in [2] is “Toxic”; in [7], 30%. Moreover, the values for the inhibition at 1 µM in data set [3] and in data set [22] were 13% and 32%, respectively. The F in data set [4] is 17%. For the same compound, the inhibition at 5 µM is 47% in data set [5] and 74% in data set [19]. In addition, the peak concentration (Cmax) in data set [13] worked out at 1511 ng/mL. Besides, testing at 0.5 µM in [14] gave an inhibition of 0%. The compound also showed an AUClast in data set [16] of 1832 ng·h/mL. The result on Cyclin-K (Homo sapiens) was inactive. The compound further had an inhibition at 2.5 µM in data set [18] of 15%.

For orientation: inhibition means the percentage by which the read-out fell short of the control. As a reminder, the IC50 is the point on the concentration scale where inhibition reaches its midpoint. As usually defined, the Cmax is the maximum level reached in the sampled fluid or tissue.
